In patent publication US20190070170A1, “METHOD OF S[…]-1” (Macau University of Science and Technology, priority 2017, published 2019):

Key:
COX-1 [1] = experiment: COX-1 protein expression in hind paws of CIA DBA/1 mice; format: in vivo; settings: SIN 100 mg/kg i.p.
Description: Female DBA/1 mice (8-9 weeks old) were purchased from Shanghai SiLaike (SLAC) Laboratory Animal Company (Shanghai, China) and fed with a chow diet and water at room temperature. Equal volume of complete Freuend's adjuvant (CFA) and Bovine Type II Collagen (CII) were mixed and emulsified using a homogenizer (13,000 rpm) on ice. On day 0, DBA/1 mice were immunized by injecting 50 μl of CII in CFA in the tail, approximately 2 cm from the base of the tail. […] The incidence of joint swelling in each group was recorded every two days since drug treatment. […]
Frozen paws were pulverized in liquid nitrogen using a stainless steel mortar and pestle, then re-suspended in 8 volumes of ice-cold PBS from Invitrogen (San Diego, Calif., USA) with 2.6 mM DTT from Promega (Madison, Wis., USA) and 2×Complete Protease Inhibitor mixture from Roche (Mannheim, Germany), and homogenized on ice bath using a tissue homogenizer from T25 digital, IKA (Stanfen, Germany) at 10,000 rpm/min for 5 min. […] The protein concentrations were measured using a Bio-Rad protein assay kit (Hercules, Calif., USA). […]
(§1) Whole-cell and nuclear proteins were obtained using RIPA lysis buffer (CST, Boston, Mass., USA) and Nuclear and Cytoplasmic Extraction Reagents kit from Thermo Scientific (Asheville, N.C., USA), respectively. […] The levels of protein expression were measured using Odyssey v3.0 software from Li-COR (Lincoln, Nebr., USA).

COX-1 [2] = experiment: COX-1 protein in microsomes of inflamed paw of carrageenan-induced rats (western blotting); format: in vivo, SD rats; settings: SIN or DEX pretreatment i.p.
Description: The model of carrageenan-induced paw edema was performed with SD rats (150-200 g). The carrageenan-induced paw edema was performed in SD rats (150-200 g) by subcutaneously injection λ-carrageenan as described in Liu J. et al., Pharmacological research 2016, 111 and Luo P. et al., J. Pharmacol. Exp. Ther. 2010. Briefly, rats were fasted for 12 h before experiment and intraperitoneal injection was performed with three different doses (25, 50 and 100 mg/kg) of SIN, or DEX (reference drug, 2 mg/kg) or 0.9% saline (Vehicle and Normal group rats), at 2 h prior to the induction of paw edema. […] Paw volumes (ml) of right hind foot of each rat were measured using a plethysmometer (type 7150; UGO Basile, Comerio, Italy) at 0 h (before carrageenan injection) and then again at 1, 2, 3 and 4 h after the injection of carrageenan or saline. The percentage of paw edema of the right hind paws of all groups were calculated at different time points by the following equation: […]
as §1

Structure (SMILES): COC1=C[C@@H]2[C@@H]3Cc4ccc(OC)c(O)c4[C@]2(CCN3C)CC1=O [SIN, sinomenine]
- COX-1 expression in paw tissues (COX-1 [1]): did not produce observable changes
- COX-1 level in inflamed paw (COX-1 [2]): did not produce observable effects
